Patent publication US5128363A, “Trifluoromethoxy substituted 1,3,4,9-tetrahydropyrano-[3,4-b]indole-1-acetic acids” (American Home Products Corporation, priority 1990, dated 1992)

Key:
[1] = system: rats injected intradermally in the left hind paw with Freund's complete adjuvant; test: Preventative Adjuvant Edema; format: in vivo, Male Sprague Dawley rats; details: Rattus norvegicus, po, 25 mg/kg p.o., edema volume day 3 vs day 0, read-out: Preventative Adjuvant Edema, percent inhibition
Protocol: This test is a primary screen for anti-inflammatory drugs.
Male Sprague Dawley rats (180-200 g) are used. The animals have free access to water but food is withdrawn 18 hours before testing.
Drug Preparations and Administration:
Freund's complete adjuvant is prepared by suspending 5 mg of killed and dried Mycobacterium butyricum (Difco) in 1 mL mineral oil. The test compounds are dissolved, or suspended in 0.5% Tween 80 in distilled water according to their solubility. For primary screening all drugs are administered by gastric gavage at the arbitrary dosage of 25 mg/kg, p.o. in a volume of 0.5 mL/100 g body weight to groups of 10 animals.
The method is essentially that described by Wax et al, J. Pharmacol. Exp. Ther., 192, 166-171 (1975). Groups of rats are injected intradermally in the left hind paw with 0.1 mL of Freund's complete adjuvant. […] The injected hind paw volume is measured before the injection of adjuvant and 24 hrs. after the last drug administration (day 3) by means of a plethysmometer (Buxco Electronics Inc.). […]
The mean edema volume (expressed as mL±SEM) is calculated for each group and the percentage protection conferred by the drug is calculated: [formula] where c is the mean edema volume for the vehicle-treated (0.5% Tween 80 in distilled water) controls and t is the means edema volume for the drug treated group.

[2] = system: rats with established adjuvant arthritis; test: Curative Adjuvant Arthritis; format: in vivo, Male inbred Wistar Lewis rats; details: for Injected Paw Edema / Non-Injected Paw Edema: change day 16 to day 25; for Body Weight Change: day 16 to day 25
Excerpt: An additional test used to determine the utility of the compounds of the present invention is designated: Curative Adjuvant Arthritis. The objective of this test is to evaluate the ability of drugs to decrease edema in rats with established adjuvant arthritis in order to characterize further the anti-inflammatory activity of the compounds of the present invention. Species Male inbred Wistar Lewis rats with an initial body weight of 180-200 g were used. The animals had free access to food and water throughout the test. Drug Preparations and Administration Freund's Complete Adjuvant (FCA) was prepared by suspending 5 mg killed and dried Mycobacterium butyricum (Difco) in 1 mL mineral oil. The test compounds were dissolved, or suspended with a few drops of Tween 80, in distilled water according to their solubility. […] The volume of both hind paws were measured and body weight recorded at that time. On day 16 after FCA injection the volume of both hind paws were again measured. […] Mean body weight for each group was recorded. Drug or vehicle treatment was initiated on day 16. Animals were dosed daily from day 16 to day 25 (i.e. a total of […]). The volume of both hind paws and the body weight of the animal was recorded 2 hours after the last drug administration. Vehicle treated arthritic animals acted as a vehicle-treated control group and animals treated with etodolac (3 mg/kg po) acted as a positive control group. […] The ED50, or dose which causes such an effect in 50% animals, is calculated by probit analysis.

[3] = system: mice injected with a chemical irritant; test: Phenylbenzoquinone-induced Writhing in Mice; format: in vivo, Male Swiss albino mice; details: Mus musculus, po; for ED50: read-out: Phenylquinone Writhing in Mice, ED50
Protocol: A further test used to determine the utility of the compounds of the present invention is designated: Drug Effects on Phenylbenzoquinone-induced Writhing in Mice.
The objective of this test is to determine the ability of test drugs to inhibit the nociceptive (pain) response of mice injected with a chemical irritant. This test is a primary screen for both peripheral and centrally acting analgesic drugs.
Male Swiss albino mice (15-25 g). The animals are fasted for 18 hours prior to use but have free access to water.
Drug Preparation and Administration:
Drugs are dissolved or suspended according to their solubility in 0.5% Tween 80 in distilled water. They are administered by gastric gavage in a volume of 5 mL/kg. For primary screening all drugs are administered at the arbitary dosage of 10 mg/kg, p.o. to a group of 10 mice.
A modification of the method of Siegmund et al, Proc. Soc. Exp. Biol. Med., 95, 729-731 (1957) is used. Groups of 5 mice are dosed with the test compound or vehicle control. Sixty minutes later the animals are injected i.p. with 0.3 mL/20 g body weight of a 0.02% solution of phenylbenzoquinone (PBQ; 2-phenyl-1,4-benzoquinone) and placed in individual observation boxes. The number of writhing or abdominal squirming movements made by each mouse during the following 15 min. period is counted. The experiment is repeated with another group of 5 mice and the mean number of writhes per mouse for a group of 10 mice is calculated.
Drug treated and vehicle-treated control groups are compared and the percentage protection conferred by the drug is calculated: [formula] where c=mean number of writhes in the control group where t=mean number of writhes in the test drug group

Structure (SMILES) | inhibition at 25 mg/kg [1] [%] | Injected Paw Edema ([2]; 0.3 mg/kg/day p.o.) | Non-Injected Paw Edema ([2]; 0.3 mg/kg/day p.o.) | Body Weight Change ([2]; 0.3 mg/kg/day p.o.) | anti-inflammatory effect relative to etodolac ([2]; 1 mg/kg/day p.o.) | Injected Paw Edema ([2]; 1 mg/kg/day p.o.) | Non-Injected Paw Edema ([2]; 1 mg/kg/day p.o.) | Body Weight Change ([2]; 1 mg/kg/day p.o.) | Injected Paw Edema ([2]; 3 mg/kg/day p.o.) [mL] | Non-Injected Paw Edema ([2]; 3 mg/kg/day p.o.) | Body Weight Change ([2]; 3 mg/kg/day p.o.) | health as assessed by body weight gain ([2]; highest dose, 3 mg/kg/day) | potency relative to etodolac ([2]; more potent than etodolac, curative adjuvant arthritis) | inhibition at 10 mg/kg ([3]; 10 mg/kg p.o., read-out: Phenylquinone Writhing in Mice, percent inhibition) [%] | ED50 [3] [mg/kg]
CCC1(CC(=O)O)OCCc2c1[nH]c1cc(OC(F)(F)F)ccc21 (centres unmarked) [1-Ethyl-1,3,4,9-tetrahydro-7-(trifluoromethoxy)-pyrano[3,4-b]indole-1-acetic Acid] | 88 | +0.53 mL | +1.21 mL | +2 g | intermediate between that produced by 1 and 3 mg/kg etodolac | -0.18 mL | +0.35 mL | +2 g | -0.60 | +0.11 mL | +20 g | appeared healthy | approximately 2 fold | 47 | 24
CCc1cccc2c3c([nH]c12)C(CC)(CC(=O)O)OCC3 (centres unmarked) [etodolac, reference compound] | 68 | +1.12 mL | +1.86 mL | -3 g |  | +0.40 mL | +1.14 mL | -9 g | -0.28 | +0.51 mL | +10 g |  |  |  | 168
